{"source": "paper PMC9374377", "about": "“Noninvasive interrogation of CD8^+ T cell effector function for monitoring early tumor responses to immunotherapy” (The Journal of Clinical Investigation, 2022)", "key": {"[1]": {"tested_on": "MC38 tumor–bearing mice", "assay": "FTY720 treatment of MC38 tumor–bearing mice under anti–PD-1 plus anti–CTLA-4", "format": "in vivo, mouse", "source_text": "MC38 or B16-OVA tumor–bearing C57BL/6 mice were euthanized, and tumor tissues were harvested and digested with 10 U/mL collagenase I, 400 U/mL collagenase IV, and 30 U/mL DNase (Yuanye Bio-Technology) to generate single-cell suspensions. The following fluorescently labeled antibodies were then used for staining of different markers: anti-CD45 (clone 30-F11, BioLegend), anti-CD4 (clone RM4-5, eBioscience), anti-CD8 (clone 53-6.7, BioLegend), anti-NK1.1 (clone PK136, BioLegend), anti–granzyme B (clone QA16A02, BioLegend), and anti–IFN-γ (clone XMG1.2, BioLegend). For granzyme B and IFN-γ staining, cells were incubated in culture medium containing a cell activation cocktail (catalog 423303, BioLegend) at 37°C for 5 hours and then washed with permeabilization wash buffer (catalog 421002, BioLegend) before being stained with fluorescently labeled antibodies. Data collection and analysis were performed on a flow cytometer (Becton Dickinson).\nThe tumor sections were fixed with ice-cold acetone for 10 minutes and washed with PBS. Next, the slices were blocked with 1% BSA for 1 hour and incubated with rabbit anti–mouse granzyme B antibody (catalog 17215S, Cell Signaling Technology) or rabbit anti–mouse NK1.1 antibody (clone EPR22990-31, Abcam) overnight at 4°C. The slices were then visualized by incubation with FITC-conjugated secondary antibody (catalog E031220-01, Earthox) and DAPI (Biotium) under a confocal microscope (Leica)."}, "[2]": {"tested_on": "MC38 tumor–bearing mice", "conditions": "mouse, in vivo", "procedure": "(§1) Small-animal PET scanning and image analysis were performed using a Super Nova PET/CT scanner ([sequence]). […] At the indicated times (0.5, 1, and 2 hours) after injection, 10-minute static PET scans were acquired. PET images were analyzed, and the region of interest–derived (ROI-derived) %ID/g values were calculated as described previously ([52]).\nMC38 tumor-bearing C57BL/6 mice were pretreated with anti-PD-1 antibody\nFor the small-animal PET imaging studies, ten MC38 tumor-bearing C57BL/6 mice\nCTLA-4 (clone 9D9; BioXcell) antibodies on days 0, 3, and 6 after the tumor size\ngrazytracer. Mice were anesthetized with 2% inhaled isoflurane, and 10-min static PET\nscans were acquired at 0.5, 1, and 2 h postinjection using a small-animal Super Nova\nPET/CT scanner ([sequence], Shanghai, China). The tumor %ID/g values and tumor-\nto-muscle ratios of 68Ga-NOTA-GZP and 68Ga-grazytracer were calculated for"}, "[3]": {"tested_on": "4T1 tumor–bearing mice", "conditions": "mouse, in vivo", "procedure": "as §1"}, "[4]": {"assay": "In vivo metabolic stability (serum and urine, radio-HPLC)", "set-up": "species or system mouse", "conditions": "female C57BL/6 normal mice, 5.55 MBq i.v.", "source_text": "μg/day on days 0, 3, and 6).\ndistribution of the radiotracer in the main organs. Mice were euthanized at 0.5, 1, and\nand measured using a γ counter (Packard, Meriden, CT). The results are presented as\nIn vivo metabolic stability studies\ngrazytracer or 68Ga-NOTA-GZP.\nand analyzed using radio-HPLC."}}, "note": "Where a SMILES comes first, the peptide text is derived from it. The star is where a group is joined. X1 = O=C(O)CN1CCN(CC(=O)O)CC(Cc2ccc(NC(=S)*)cc2)N(CC(=O)O)CC1"}
{"smiles": "CCCCCCCCc1ccc(CCC(N)(CO)CO)cc1", "note": "[FTY720]", "values": [{"measurement": "effect on the antitumor effect of anti–PD-1 plus anti–CTLA-4", "setting": "[1]; 25 μg i.p. on day –1, 10 μg daily day 0 to 12, n = 6–9", "value": "partially reversed the antitumor effect"}, {"measurement": "body weight", "setting": "[1]; MC38 mice, n = 6–9", "value": "without influencing body weight"}, {"measurement": "granzyme B secretion in tumors (immunofluorescence)", "setting": "[1]; MC38 tumors on day 6", "value": "reduced granzyme B secretion in tumors"}, {"measurement": "levels of NK, CD4+ T and CD8+ T cells in tumor versus group without FTY720", "setting": "[1]; flow cytometry, day 6, n = 5/group", "value": "significantly lower"}]}
{"smiles": "OC[C@H]1OC(O)[C@H](F)[C@@H](O)[C@@H]1O", "note": "(some centres unmarked) [^18F-FDG, ^18F-fluorodeoxyglucose]", "values": [{"measurement": "change of tumor uptake from days 0 to 6, pseudoprogression MC38 model", "setting": "[2]", "value": "significantly increased"}, {"measurement": "change of tumor uptake from days 0 to 6, true-progression 4T1 model", "setting": "[3]", "value": "significantly increased"}]}
{"smiles": "CC[C@H](C)[C@H](NC(=O)CNC(=O)CNC(=O)CNC(=S)Nc1ccc(CC2CN(CC(=O)O)CCN(CC(=O)O)CCN2CC(=O)O)cc1)C(=O)N[C@@H](CCC(=O)O)C(=O)N[C@@H](Cc1ccccc1)C(=O)N[C@H](C=O)CC(=O)O", "note": "(some centres unmarked) [^68Ga-NOTA-GZP, ^68Ga-1,4,7–triazacyclononane-1,4,7-triacetic acid–GZP, metal not drawn] (X1-GGGIEFD-aldehyde)", "values": [{"measurement": "in vivo metabolic stability in blood", "setting": "[4]; serum at 0.5 hours after injection", "value": "favorable stability in the blood"}, {"measurement": "in vivo metabolic stability in urine", "setting": "[4]; urine at 0.5 hours after injection", "value": "some decomposition in urine"}]}
